Measured values published in article PMC5642494 (Oncotarget, 2017).
Read-outs that look alike come from different tables or passages of the source.

Assays:
[1] = tested on: MCF7 cells; assay: Multiplexed cell number, β-gal and TUNEL in MCF7; format: cell-based, human; details: 0.125 µM or 0.5 µM, 1-5 DT
Experimental: The viable cell number was determined by PI staining, the % of β-gal positive cells was determined using an antibody to β-gal, and the % of Tunel positive cells was determined by the incorporation of labelled dUTP. The data are plotted as the mean (+/- SD) of 2 experiments for CDK4 and CDK6 inhibitor treatment, and the mean of 6 experiments (+/- SD) for untreated samples. The duration of treatment is plotted along the x-axis in doubling times (DT) for MCF7 cells.
After treatment, cells were fixed, washed with PBS, permeabilized and β-gal was detected using anti-β-galactosidase antibody; for multiplexed assays, TUNEL staining was carried out using Roche TUNEL reagents as indicated above. Nuclei were also stained with PI for total cell counting. Plates were read in an Acumen Explorer Ex3 (TTP Labtech) and raw data were analyzed with Cellista software. Outputs were expressed as percentages of each identified subpopulation 1) positive β-gal, and 2) total cell number. The percentages of β-gal positive cells, TUNEL positive cells, and cell numbers were plotted in Microsoft Excel.

[2] = tested on: MCF7 cells; assay: TCA metabolite profiling by LC/MS in MCF7; format: cell-based, human; details: for EC50: Homo sapiens, MCF7, MCF7, single experiment, read-out: EC50 α-ketoglutarate; for Aspartate level / Citrate level / Fumarate level / Glutamate level / Isocitrate level / Lactate level / Malate level / Pyruvate level / Succinate level / α-ketoglutarate level: MCF7, 3 DT, normalized to DMSO = 1, n = 3
Experimental: MCF7 cells were plated at 20,000 cells/well in 24-well plate; approximately 14–24 hours after seeding, cells were treated with DMSO (vehicle) or the indicated compounds diluted in DMSO. Cells were incubated for three different incubation times: 48 hours (1 DT), 96 hours (2 DT), and […] (3 DT). After treatment, cells were harvested and the collected pellet was stored at -80°C. For additional details see Supplemental Methods and Supplementary Table 1. […]
SA-β-gal Cell samples were lysed after treatment with expression was determined using the Senescence Cells 100 µL lysis buffer and transferred to a 96-well plate.
Histochemical Staining Kit (Sigma, CS0030) following 30 µL of each sample were transferred into deep well the vendor ’s manual. Images were taken at 100x by bright plates using TECAN-EVO Workstation. Samples were field microscopy (Leica DMiL). treated for derivatization of the metabolites of interest and internal standards. For this, 50 µL of derivatization reagent
Proliferation studies after washouts (EdU Click- and 80 µL of internal standard (IS, SupplementaryTable iT®) 1), were added with multidrop, plates were vortexed for 5 mins and let sit for one hour at 4 °C. The IS used were the Cells were plated onto poly-D-lysine D or 13C-labeled commercial analogues of nine of the ten coated 96-well plates at a density of 2,000–6,000 metabolites, prepared at 25 µM in water (Supplementary viable cells per well, and treated with abemaciblib or Table 1). The derivatization reagents (from Sigma), palbociclib at 1µM following the cell treatment and 3-nitrophenylhydrazine (0.5 M) and the coupling buffer washout schedule shown on Supplementary Figure 1A. [N-(3-Dimethylaminopropyl)-N′-ethylcarbodiimide An EdU (5-ethynyl-2’-deoxyuridine) pulse was added hydrochloride (1M) were freshly prepared in 75:24:1 one hour prior to the end of study at a final concentration methanol/water/pyridine. of 10 µM as described in the kit protocol (Click-iT After derivatization, a liquid-liquid extraction step High Content Imaging EdU Incorporation kit (Life with ethyl acetate was carried out in two steps; the upper Technologies cat# C10351)). The cells were then fixed phase was transferred to a new deep-well plate with in the presence of 3.7% formaldehyde for 20 minutes at TECAN-EVO, and the joint extract was evaporated to 37°C, and permeabilized with 0.1% Triton-X 100 in PBS dryness with nitrogen, and reconstituted with 50% H2O/ for 10 minutes at 25°C, then washed twice with PBS. MetOH. A set of calibrants at 12 levels of the analytes They were blocked using 1% bovine serum albumin was derivatized in parallel following the same protocol.
(BSA) (Invitrogen #15260-037) for 1 hour at 25°C. EdU Samples were analyzed by LC─MS/MS under the detection was performed using the Click-iT High Content conditions described below. […]
Mass Spectrometer (qQq) with JetStream Electrospray
Objects were identified using an algorithm to Ionization (ESI) Source, coupled to a LC1290 Infinity detect nuclear staining with Hoechst 33342 dye. The High-Performance Liquid Chromatograph. The software relative levels and sub-cellular localization of EdU were for data collection and treatment was Agilent Masshunter determined through the respective intensities and locations Workstation. Mobile phases for chromatography were: of Alexa-488 fluorescence. mobile phase A: formic acid (5 mM) and ammonium formate (10 mM) in water; mobile phase B: acetonitrile.
Assessment of hypermethylation of histone H3 at 50% Acetonitrile/water were used to clean the lysine 9 (H3K9me3) injection needle after each injection. A reverse-phase chromatographic column (XBridge BEH C18 3.5 µm, MCF7 and EFM-19 cells were plated in 96-well 2.1 × 50 mm) from […] plates and treated at 20 µM (or a 3-fold dilution series) was used as stationary phase. Chromatographic separation […]
Tecan Genesis RSP100 liquid-handling system was used mobile phase A in 6 min; then to 5% in 0.1 min, maintained […]

[3] = target: CDK4/cyclin D1 complexes; set-up: method as in PMID 24919854; details: cell-free; read-out: Ki^ATP CDK4/cyclin D1; cited from earlier work

**Q.** For `CCN1CCN(Cc2ccc(Nc3ncc(F)c(-c4cc(F)c5nc(C)n(C(C)C)c5c4)n3)nc2)CC1` [abemaciclib, Abemaciclib], which TUNEL staining [1] is on record?
**A.** The TUNEL staining was “increase in TUNEL staining was observed by 2DT”.

**Q.** And the EC50 ([2]; 1 DT)?
**A.** Its EC50 is 370 nM.

**Q.** And the EC50 ([2]; 2 DT)?
**A.** The EC50 was 280 nM.

**Q.** What about the EC50 ([2]; 3DT) of the same compound?
**A.** Its EC50 is 730 nM.

**Q.** What about the Aspartate level ([2]; 0.5 µM) of the same compound?
**A.** The Aspartate level was 0.72 ± 0.10.

**Q.** What about the Citrate level ([2]; 0.5 µM) of the same compound?
**A.** The Citrate level was 1.20 ± 0.27.

**Q.** And the Fumarate level ([2]; 0.5 µM)?
**A.** The Fumarate level was 0.12 ± 0.02.

**Q.** What about the Glutamate level ([2]; 0.5 µM) of the same compound?
**A.** Its Glutamate level is 0.71 ± 0.06.

**Q.** And the Isocitrate level ([2]; 0.5 µM)?
**A.** The Isocitrate level was 1.90 ± 0.65.

**Q.** And the Lactate level ([2]; 0.5 µM)?
**A.** Its Lactate level is 0.30 ± 0.02.

**Q.** What about the Malate level ([2]; 0.5 µM) of the same compound?
**A.** The Malate level was 0.22 ± 0.01.

**Q.** And the Pyruvate level ([2]; 0.5 µM)?
**A.** The Pyruvate level was 1.22 ± 0.64.

**Q.** What about the Succinate level ([2]; 0.5 µM) of the same compound?
**A.** The Succinate level was 0.35 ± 0.08.

**Q.** And the α-ketoglutarate level ([2]; 0.5 µM)?
**A.** Its α-ketoglutarate level is 0.13 ± 0.03.

**Q.** What about the Aspartate level ([2]; 2 µM) of the same compound?
**A.** The Aspartate level was 0.47 ± 0.13.

**Q.** What about the Citrate level ([2]; 2 µM) of the same compound?
**A.** Its Citrate level is 1.07 ± 0.3.

**Q.** What about the Fumarate level ([2]; 2 µM) of the same compound?
**A.** Its Fumarate level is 0.12 ± 0.07.

**Q.** And the Glutamate level ([2]; 2 µM)?
**A.** The Glutamate level was 1.10 ± 0.38.

**Q.** And the Isocitrate level ([2]; 2 µM)?
**A.** The Isocitrate level was 0.81 ± 0.52.

**Q.** What about the Lactate level ([2]; 2 µM) of the same compound?
**A.** The Lactate level was 0.38 ± 0.15.

**Q.** And the Malate level ([2]; 2 µM)?
**A.** Its Malate level is 0.09 ± 0.03.

**Q.** And the Pyruvate level ([2]; 2 µM)?
**A.** Its Pyruvate level is 3.59 ± 1.65.

**Q.** And the Succinate level ([2]; 2 µM)?
**A.** The Succinate level was 0.65 ± 0.23.

**Q.** What about the α-ketoglutarate level ([2]; 2 µM) of the same compound?
**A.** Its α-ketoglutarate level is 0.08 ± 0.02.

**Q.** What about the Ki [3] of the same compound?
**A.** The Ki was 0.6 nM.
